Experimental data as given in patent publication US11498928B2, “Macrocyclic spiroethers as Mcl-1 inhibitors” (ASCENTAGE PHARMA (SUZHOU) CO., LTD., priority 2019, dated 2022).
Read-outs that look alike come from different tables or passages of the source.

How the values were obtained:
[1] = amide bond, T3P, DCM, 2.0 h
[2] = target: T1, Mcl-1 protein (residues 171-323) (Homo sapiens, UniProt Q07820); experiment: Inhibition of Mcl-1 by fluorescence polarization (FP) competitive binding assay with FAM-Bid tracer; details: 2 nM FAM-Bid, 20 nM Mcl-1, 30 min
T1 construct: Tag-free Mcl-1 protein (residues 171-323) was used in the FP assay
T1 sequence (Q07820 171-323): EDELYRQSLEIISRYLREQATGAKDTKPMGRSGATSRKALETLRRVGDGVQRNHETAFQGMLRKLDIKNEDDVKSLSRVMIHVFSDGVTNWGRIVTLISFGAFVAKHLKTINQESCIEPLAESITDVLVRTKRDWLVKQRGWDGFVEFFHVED
Summary of the method: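 Ten-point compound titrations compete against 2 nM fluorescein-Bid for 20 nM Mcl-1 (171-323, untagged). Incubation 30 min RT in PBS buffer with BGG and Triton, 5% DMSO final. mP reduction fitted by sigmoidal nonlinear regression for IC50.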

[3] = test system: OPM-2 cells; experiment: Cell viability assay (OPM-2 cells), CCK-8; type: cell-based; details: 5% FBS
Summary of the method: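 Viability read by CCK-8 absorbance (450 nm, 4 h reagent incubation) after 24 h compound exposure of 20000 OPM-2 cells per well at 37 °C. IC50 fitted by nonlinear regression on vehicle-normalized signal.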

[4] = test system: NCI-H929 cells; experiment: Cell viability assay (NCI-H929 cells), CCK-8; type: cell-based; details: 5% FBS
Summary of the method: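 Viability of NCI-H929 cells was measured using the Cell Counting Kit-8. After 24 hrs of compound exposure, 10 μL of CCK-8 solution per well was incubated for 1-4 hours, and absorbance was read at 450 nm on a BioTek Synergy 1MF. Readings were normalized to vehicle (DMSO) cells, and IC50 values were derived by nonlinear regression in GraphPad Prism 6.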

[5] = Pharmacokinetic studies in mice (IV and PO); type: in vivo; details: for F: PO 10 mg/kg vs IV 2 mg/kg; for AUC(0-inf) / AUC(0-t) / clearance / half-life / Cmax / MRT last / Vd / Tmax / Vd/F: mouse, plasma; for MRT last: read-out: MRT0-last; for Vd: read-out: Vss; for Vd/F: read-out: Vz/F
Experimental: Administration: Mice in the IV group was dosed at 2 mg/kg (20% PEG 400+10% Cremophor EL+70% PBS 7.4) via tail vein injection (N=9). Mice in the PO group was dosed at 10 mg/kg (20% PEG 400+10% Cremophor EL+70% PBS 7.4) via oral gavage (N=9). All the mice were fasted overnight before dosing and had free access to food 4 hr post dosing.
Sampling: The animal was restrained manually at the designated time points (0.083, 0.25, 0.5, 1, 2, 4, 6, 8 and 24 hr), approximately 110 μL of blood sample was collected via retro-orbital puncture or cardiac puncture for terminal bleeding under the anesthesia with Isoflurane inhalation into K2EDTA tubes. The blood samples were maintained in wet ice first and centrifuged to obtain plasma (2000 g, 4° C., 5 min) within 15 minutes post sampling. All the plasma samples were stored at approximately −70° C. until analysis.

[6] = test system: MV-4-11, NCI-H929 and OPM-2 xenografts; experiment: In vivo xenograft studies (subcutaneous tumor models); details: tumor-bearing mice, as compared to AMG-176
Experimental: Female SCID mice at 4-6 weeks old were purchased from Shanghai Laboratory Animal Center (SLAC) and 1×10^7 MV-4-11 cells per mouse in 0.2 ml of PBS with 30% Matrigel were inoculated subcutaneously to the right flank of mice. Volumes of the tumor were estimated as V=LW^2/2, where L and W stand for tumor length and width. Mice with tumor at 50-150 mm^3 were randomized into treatment groups (5 mice per group) and started treatment. Compounds were administered at selected doses by p.o. or i.v. administration. The individual relative tumor volume (RTV) is calculated as following: RTV=Vt/V0, where Vt is the volume on each day of measurement and V0 is the volume on the initial day of treatment. Therapeutic effect of compound is expressed with relative tumor proliferation rate (T/C). The calculation formula is: T/C=mean RTV of the treated group/mean RTV of the control group. Treatments producing >20% lethality and/or 20% net body weight loss were considered toxic. Similar procedures were used in the for the NCI-H929 and OPM-2 xenograft experiments. See FIGS. 1, 3, 5, 7, 9, 11, and 13. Body weight changes in tumor-bearing mice were also measured. See FIGS. 2, 4, 6, 8, 10, 12, and 14.

[7] = IV 2 mg/kg, read-out: C0/Cmax (C0)
[8] = PO 10 mg/kg, read-out: C0/Cmax (Cmax)

SMILES | IC50 [2] [nM] | F [5] [%] | AUC(0-inf) ([5]; IV 2 mg/kg) [ng·h/mL] | AUC(0-t) ([5]; IV 2 mg/kg) [ng·h/mL] | clearance ([5]; IV 2 mg/kg) [mL/min/kg] | half-life ([5]; IV 2 mg/kg) [h] | Cmax [5, 7] [ng/mL] | MRT last ([5]; IV 2 mg/kg) [h] | Vd ([5]; IV 2 mg/kg) [L/kg] | AUC(0-inf) ([5]; PO 10 mg/kg) [ng·h/mL] | AUC(0-t) ([5]; PO 10 mg/kg) [ng·h/mL] | Tmax ([5]; PO 10 mg/kg) [h] | half-life ([5]; PO 10 mg/kg) [h] | Cmax [5, 8] [ng/mL] | MRT last ([5]; PO 10 mg/kg) [h] | Vd/F ([5]; PO 10 mg/kg) [L/kg] | IC50 ([3]; Homo sapiens, OPM-2, 24 h) [nM] | IC50 ([4]; Homo sapiens, NCI-H929, 24 h) [nM] | further results
CC(=O)OC1C2=C[C@@H](C2)[C@H](C)[C@@H](C)S(=O)(=O)NC(=O)c2ccc3c(n2)N(C[C@@H]2CC[C@@H]12)C[C@@]1(CCCc2c1ccc(Cl)c2F)CO3 (stereo partly drawn) |  |  |  |  |  |  |  |  |  |  |  |  |  |  |  |  |  |  | ring closure, yield of all isomers ([1]; from CC(=O)OC(C1=C[C@H]([C@H](C)[C@@H](C)S(N)(=O)=O)C1)[C@@H]1CC[C@H]1CN1C[C@@]2(CCCc3c2ccc(Cl)c3F)COc2ccc(C(=O)O)nc21, DIPEA, DMAP, 24.6 mM): 100%
CC(=O)O[C@H]1C2=C[C@@H](C2)[C@H](C)[C@@H](C)S(=O)(=O)NC(=O)c2ccc3c(c2)N(C[C@@H]2CC[C@H]21)C[C@@]1(CCCc2c1ccc(Cl)c2F)CO3 |  |  |  |  |  |  |  |  |  |  |  |  |  |  |  |  |  |  | ring closure, yield of all isomers ([1]; from CC(=O)O[C@@H](C1=C[C@H]([C@H](C)[C@@H](C)S(N)(=O)=O)C1)[C@@H]1CC[C@H]1CN1C[C@@]2(CCCc3c2ccc(Cl)c3F)COc2ccc(C(=O)O)cc21, TEA, 14.5 mM): 100%
CO[C@@]1(C=O)C2=C[C@@H](C2)[C@H](C)[C@@H](C)S(=O)(=O)NC(=O)c2ccc3c(c2)N(C[C@@H]2CC[C@H]21)C[C@@]1(CCCc2c1ccc(Cl)c2F)CO3 |  |  |  |  |  |  |  |  |  |  |  |  |  |  |  |  |  |  | ring closure, yield of all isomers ([1]; from CO[C@@](C=O)(C1=C[C@H]([C@H](C)[C@@H](C)S(N)(=O)=O)C1)[C@@H]1CC[C@H]1CN1C[C@@]2(CCCc3c2ccc(Cl)c3F)COc2ccc(C(=O)O)cc21, DIPEA, DMAP, 6.4 mM, 0.0 °C): 89%
CO[C@H]1C2=CC(C2)[C@H](C)CS(=O)(=O)NC(=O)c2ccc3c(c2)N(C[C@@H]2CC[C@H]21)C[C@@]1(CCCc2c1ccc(Cl)c2F)CS3 (stereo partly drawn) |  |  |  |  |  |  |  |  |  |  |  |  |  |  |  |  |  |  | ring closure, yield of all isomers ([1]; from CO[C@@H](C1=CC([C@H](C)CS(N)(=O)=O)C1)[C@@H]1CC[C@H]1CN1C[C@@]2(CCCc3c2ccc(Cl)c3F)CSc2ccc(C(=O)O)cc21, Et3N, DMAP, 10.6 mM, 25.0 °C): 26.4%
CO[C@H]1C2=CC(C2)[C@H](C)CS(=O)(=O)NC(=O)c2ccc3c(c2)N(C[C@@H]2CC[C@H]21)C[C@@]1(CCCc2cc(Cl)ccc21)CO3 (single isomer, unassigned) [Cpd. No. 14 (Isomer 1)] | 4.7 | 134.6 | 4720 | 4690 | 7.07 | 3.6 | 1510 | 3.9 | 1.7 | 31800 | 31400 | 2 | 3.6 | 3920 | 5.6 | 1.6 |  |  | IC50 ([3]; 24 h): 208 nM; IC50 ([4]; 24 h): 26 nM
CO[C@H]1C2=C[C@@H](C2)[C@H](C)[C@@H](C)S(=O)(=O)NC(=O)c2ccc3c(c2)N(C[C@@H]2CC[C@H]21)C[C@@]1(CCCc2cc(Cl)ccc21)CO3 (single isomer, unassigned) [Cpd. No. 15 (isomer 1)] | 9.7 | 84.7 | 7870 | 7580 | 4.23 | 4.9 | 2740 | 4.8 | 1.5 | 33300 | 33000 | 2 | 3.4 | 2720 | 6.1 | 1.5 | 84 | 18 | 
CO[C@H]1C2=C[C@@H](C2)[C@H](C)[C@@H](C)S(=O)(=O)NC(=O)c2ccc3c(c2)N(C[C@@H]2CC[C@H]21)C[C@@]1(CCCc2c1ccc(Cl)c2F)CO3 (single isomer, unassigned) [Cpd. No. 17 (isomer 1)] | 8.1 | 92.9 | 15200 | 13900 | 2.18 | 7 | 997 | 6.7 | 1.2 | 70700 | 56000 | 4 | 10.6 | 4350 | 8.3 | 2.2 | 62 | 16 | body weight change (toxicity to the animals) [6]: less body weight change; tumor growth inhibition ([6]; p.o. or i.v.): surprisingly better tumor growth inhibition
CO[C@H]1C2=CC(C2)[C@H](C)[C@@H](C)S(=O)(=O)NC(=O)c2ccc3c(c2)N(C[C@@H]2CC[C@H]21)C[C@@]1(CCCc2cc(Cl)c(F)cc21)CO3 (single isomer, unassigned) [Cpd. No. 21 (isomer 1)] | 6.6 | 94.1 | 8780 | 8740 | 3.8 | 3.7 | 5160 | 2.7 | 0.6 | 41300 | 41200 | 2 | 2.8 | 5260 | 4.9 | 9.9 | 1120 | 1000 | 
